The target in assay [1] is T1, HDAC7 (Homo sapiens, UniProt Q8WUI4).
T1 sequence (Q8WUI4 1-952): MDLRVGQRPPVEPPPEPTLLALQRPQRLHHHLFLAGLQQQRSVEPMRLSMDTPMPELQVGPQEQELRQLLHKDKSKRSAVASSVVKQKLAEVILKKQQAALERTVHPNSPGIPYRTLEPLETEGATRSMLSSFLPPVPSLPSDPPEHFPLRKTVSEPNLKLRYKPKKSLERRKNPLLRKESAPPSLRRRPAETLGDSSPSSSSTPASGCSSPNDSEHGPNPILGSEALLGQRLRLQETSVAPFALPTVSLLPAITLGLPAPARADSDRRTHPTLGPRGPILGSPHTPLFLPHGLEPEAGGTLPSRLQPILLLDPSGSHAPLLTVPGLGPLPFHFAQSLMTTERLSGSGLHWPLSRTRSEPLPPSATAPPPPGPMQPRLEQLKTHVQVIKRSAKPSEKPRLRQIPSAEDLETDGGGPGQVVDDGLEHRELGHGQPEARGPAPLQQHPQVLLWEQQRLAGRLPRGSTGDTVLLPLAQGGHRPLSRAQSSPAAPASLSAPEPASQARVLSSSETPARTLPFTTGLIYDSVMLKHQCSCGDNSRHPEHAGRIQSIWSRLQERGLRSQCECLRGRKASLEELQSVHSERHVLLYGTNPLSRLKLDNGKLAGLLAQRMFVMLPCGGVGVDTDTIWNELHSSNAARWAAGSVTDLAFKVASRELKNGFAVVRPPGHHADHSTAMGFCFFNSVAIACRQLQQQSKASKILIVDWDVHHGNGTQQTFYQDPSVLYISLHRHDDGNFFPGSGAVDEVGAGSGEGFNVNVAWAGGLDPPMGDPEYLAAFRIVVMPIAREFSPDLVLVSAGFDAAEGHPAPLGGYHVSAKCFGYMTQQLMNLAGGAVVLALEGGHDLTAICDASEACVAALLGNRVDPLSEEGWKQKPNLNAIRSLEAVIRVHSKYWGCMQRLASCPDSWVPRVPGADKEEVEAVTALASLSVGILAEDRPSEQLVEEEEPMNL
The assay is described as follows: HDAC biochemical activity measurement (fluorescent substrate deacetylation). As to conditions: HDAC7; 37° C. 30 minutes.

Assay [2] concerns A549 (human lung cancer cells). As to the kind of experiment: MTT cancer cell growth inhibition. In kind it is cell-based. As to conditions: Homo sapiens, A549, 72 h, MTT, 72 hours incubation, read-out: GI50 A54. The essentials: (§1)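 Using a 72 h MTT format, triplicate wells of 1500 cells received compound concentrations from 10^−5 to 10^−10 M. Formazan was read at 570 nm after DMSO dissolution, and GI50 was derived from viability.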

For assay [3], the system named is BGC-823 (human gastric cancer cells). The assay is described as follows: MTT cancer cell growth inhibition. In kind it is cell-based. The note with it: Homo sapiens, BGC-823, 72 h, MTT, 72 hours incubation, read-out: GI50 BG. Summed up: as §1
Assay [4] relates to Bel-7402 (human hepatoma cells). As to the kind of experiment: MTT cancer cell growth inhibition. The note with it: Homo sapiens, Bel-7402, 72 h, MTT, 72 hours incubation, Bel-7402 cells; read-out: GI50 Bel-7402. In kind it is cell-based. The essentials:
as §1

Assay [5] concerns H1975 (non-small cell lung adenocarcinoma). As to the kind of experiment: MTT cancer cell growth inhibition. In kind it is cell-based. The note with it: Homo sapiens, NCI-H1975, 72 h, MTT, 72 hours incubation, H1975 cells; read-out: GI50 H1975. Summed up: as §1
Assay [6] relates to HCC827 (human non-small cell lung cancer cells). As to the kind of experiment: MTT cancer cell growth inhibition. In kind it is cell-based. The note with it: Homo sapiens, HCC827, 72 h, MTT, 72 hours incubation, HCC827 cells; read-out: GI50 HCC827. Summed up:
as §1

Assay [7] deals with Hela (human cervical cancer cells). As to the kind of experiment: MTT cancer cell growth inhibition. In kind it is cell-based. As to conditions: Homo sapiens, HeLa, 72 h, MTT, 72 hours incubation, read-out: GI50 Hela. Summed up: as §1
The subject of assay [8] is K562 (human leukemia cells). As to the kind of experiment: MTT cancer cell growth inhibition. In kind it is cell-based. The note with it: Homo sapiens, K562, 72 h, MTT, 72 hours incubation, K562 cells; read-out: GI50 K562. The essentials:
as §1

Assay [9] has as its system MDA-MB-231 (breast cancer cells). As to the kind of experiment: MTT cancer cell growth inhibition. The class given is cell-based. The note with it: Homo sapiens, MDA-MB-231, 72 h, read-out: GI50 MDA-MB-231, MTT, 72 hours incubation, MDA-MB-231 cells. The essentials: as §1
Assay [10] has as its system N-87 (human gastric cancer cells). The assay is described as follows: MTT cancer cell growth inhibition. The class given is cell-based. As to conditions: Homo sapiens, 72 h, MTT, 72 hours incubation, N-87 cells; read-out: GI50 N-87. Summed up: as §1
Assay [11] concerns PANC-1 (Pac-1, human pancreatic cancer cells). As to the kind of experiment: MTT cancer cell growth inhibition. In kind it is cell-based. As to conditions: Homo sapiens, PANC-1, 72 h, MTT, 72 hours incubation, read-out: GI50 PAN. The essentials:
as §1

Assay [12] deals with SGC-7901 (human gastric cancer cells). The assay is described as follows: MTT cancer cell growth inhibition. The class given is cell-based. As to conditions: Homo sapiens, SGC-7901, 72 h, MTT, 72 hours incubation, SGC-7901 cells; read-out: GI50 SGC-7901. Summed up: as §1
Assay [13] deals with T2, HDAC11 (Homo sapiens, UniProt Q96DB2).
T2 sequence (Q96DB2 1-347): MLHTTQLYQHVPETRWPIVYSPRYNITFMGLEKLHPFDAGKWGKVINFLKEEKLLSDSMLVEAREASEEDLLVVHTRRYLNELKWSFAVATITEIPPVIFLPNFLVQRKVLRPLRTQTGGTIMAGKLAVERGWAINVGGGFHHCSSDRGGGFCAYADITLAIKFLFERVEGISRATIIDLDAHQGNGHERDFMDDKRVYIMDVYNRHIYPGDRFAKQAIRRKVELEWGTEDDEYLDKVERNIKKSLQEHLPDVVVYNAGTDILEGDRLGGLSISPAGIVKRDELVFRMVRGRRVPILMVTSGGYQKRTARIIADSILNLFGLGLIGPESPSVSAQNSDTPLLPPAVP
The assay is described as follows: HDAC biochemical activity measurement (fluorescent substrate deacetylation).

The mark [14] stands for this setting: read-out: IC50 HDAC11, HDAC11, 37° C. 30 minutes.

Like-named read-outs stand apart in the source and are kept apart here.

Broadly, the GI50 is the concentration at which growth is held to half of that of the control. A word on the IC50: it is the point on the concentration scale where inhibition reaches its midpoint.
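Wherever IC50 HDAC7 is given: fluorogenic deacetylation assay using acetyl-lysine substrate at 20 µM, enzyme and compound incubated 30 min at 37 °C, then developer added, fluorescence read at 360/460 nm.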

Turning to `C/C=C1\NC(=O)c2cc(C)cc(n2)CNC(=O)C[C@@H](/C=C/CCSC(C)=O)OC(=O)[C@H](Cc2ccccc2)NC1=O` [Example 67], the “IC50 HDAC7” value in assay [1] is given as “no activity”. Also, the GI50 in [2] was found to be 30 nM; in assay [3] it was 50 nM; in assay [4], 84 nM; in assay [5] it was 34 nM; in assay [6] it was 84 nM; in [7] it was 40 nM. The GI50 is 39 nM in [8]; 33 nM in assay [9]; 51 nM in assay [10]; 80 nM in assay [11]; 37 nM in [12]. This compound registered an IC50 in [13] of 92 nM.
As to `C/C=C1\NC(=O)c2nc(ccc2F)CNC(=O)C[C@@H](/C=C/CCSC(C)=O)OC(=O)[C@H](Cc2ccc(O)cc2)NC1=O` [Compound 81], the “IC50 HDAC7” value in [1] is reported as “no activity”. In addition, the concentration for 50% growth inhibition (GI50) in [2] amounted to 50 nM; in assay [3], 30 nM; in assay [4], 51 nM; in assay [5], 43 nM; in [6] it was 51 nM; in assay [7], 30 nM. Further, the GI50 in assay [8] is 29 nM; in assay [9], 34 nM; in [10], 35 nM; in assay [11], 50 nM; in assay [12], 59 nM. In [13] (setting [14]), the 50% inhibitory concentration (IC50) is 95 nM.
Regarding `C/C=C1\NC(=O)c2cccc(n2)CNC(=O)C[C@@H](/C=C/CCSC(=O)CCCCC)OC(=O)[C@H](C(C)C)NC1=O` [Compound 3], in [1], the “IC50 HDAC7” value is on record as “no activity”. Further, the GI50 in assay [2] was determined as 50 nM; in assay [3], 60 nM; in assay [4], 97 nM; in [5], 29 nM; in [6], 33 nM; in [7], 50 nM. Besides, the GI50 in assay [8] was 37 nM; in assay [9], 91 nM; in assay [10], 43 nM; in assay [11], 30 nM; in [12], 28 nM. Inhibition in assay [13] was half-maximal at 100 nM (IC50).
Regarding `C/C=C1\NC(=O)c2ccc(F)c(n2)CNC(=O)C[C@@H](/C=C/CCSC(C)=O)OC(=O)[C@H](CCCCNC(=O)OCC2c3ccccc3-c3ccccc32)NC1=O` [Example 77], the “IC50 HDAC7” value in assay [1] is “no activity”. Moreover, the GI50 in assay [2] is 600 nM; in assay [3], 50 nM; in [4] it was 83 nM; in assay [5], 35 nM; in assay [6], 83 nM; in assay [7] it was 50 nM. The GI50 in [8] came to 42 nM; in assay [9] it was 25 nM; in assay [10] it was 52 nM; in [11], 80 nM; in [12] it was 601 nM. In assay [13], the IC50 was 88 nM.
With `C/C=C1\NC(=O)c2ccc(SC)c(n2)CNC(=O)C[C@@H](/C=C/CCSC(=O)CCCCCCC)OC(=O)[C@H](CC)NC1=O` [Compound 173], the “IC50 HDAC7” value in assay [1] is given as “no activity”. Also, the GI50 in [2] (A549 cells) amounted to 60 nM; in assay [3] (BGC-823 cells), 40 nM; in assay [4], 22 nM; in [5], 36 nM; in [6], 27 nM; in assay [7] (Hela cells), 60 nM. The 50% growth inhibitory concentration (GI50) in [8] was found to be 53 nM; in [9] it was 48 nM; in assay [10], 83 nM; in [11] (PANC-1 cells), 40 nM; in [12], 23 nM. The 50% inhibitory concentration (IC50) in assay [13] was determined as 97 nM.
`C/C=C1\NC(=O)c2cccc(n2)CNC(=O)C[C@@H](/C=C/CCSC(=O)CCCCCC)OC(=O)[C@H](C(C)C)NC1=O` [Compound 2]: the “IC50 HDAC7” value in assay [1] is “no activity”. Further, the GI50 in assay [2] was determined as 40 nM; in [3] it was 60 nM; in assay [4], 83 nM; in assay [5] it was 34 nM; in assay [6], 42 nM; in assay [7], 30 nM. Moreover, the GI50 in assay [8] worked out at 51 nM; in [9] it was 92 nM; in assay [10], 29 nM; in assay [11], 30 nM; in assay [12], 26 nM. The IC50 in assay [13] (setting [14]) stood at 102 nM.
For `CC(=O)SCC/C=C/[C@@H]1CC(=O)NCc2cc(F)cc(n2)C(=O)NC(=C(C)C)C(=O)N[C@@H](C(C)C)C(=O)O1` [Compound 88], the “IC50 HDAC7” value in [1] is “no activity”. The GI50 in assay [2] is 20 nM; in assay [3] it was 30 nM; in [4] it was 67 nM; in assay [5], 53 nM; in [6] it was 67 nM; in [7], 70 nM. In addition, the GI50 in assay [8] came to 34 nM; in assay [9], 38 nM; in assay [10], 31 nM; in assay [11] it was 60 nM; in [12], 29 nM. In [13] (setting [14]), the IC50 came to 94 nM.
In the case of `C=C1NC(=O)c2nc(ccc2F)CNC(=O)C[C@@H](/C=C/CCSC(C)=O)OC(=O)[C@H](C(C)C)NC1=O` [Compound 84], the “IC50 HDAC7” value in [1] was “no activity”. In addition, the GI50 in assay [2] amounted to 40 nM; in assay [3], 10 nM; in assay [4] it was 73 nM; in [5], 55 nM; in assay [6], 73 nM; in [7], 50 nM. The GI50 in assay [8] amounted to 35 nM; in assay [9], 28 nM; in [10], 19 nM; in [11], 70 nM; in assay [12], 43 nM. Also, in [13] (setting [14]), the 50% inhibitory concentration (IC50) stood at 91 nM.

(Values after patent publication US10065990B2, “Cyclic peptide compound, and preparation method, pharmaceutical composition and use thereof” (HANGZHOU GUANYU BIO-MEDICAL CO., LTD, priority 2013, dated 2018).)
